Columns and labels:
Pim1 kinase = Pim1 kinase (Homo sapiens (Human), UniProt P11309); settings: read-out: Pim1 IC50
Pim3 kinase = Pim3 kinase (Homo sapiens (Human), UniProt Q86V86); settings: read-out: Pim3 IC50

Pim1 kinase, sequence (P11309 whole entry): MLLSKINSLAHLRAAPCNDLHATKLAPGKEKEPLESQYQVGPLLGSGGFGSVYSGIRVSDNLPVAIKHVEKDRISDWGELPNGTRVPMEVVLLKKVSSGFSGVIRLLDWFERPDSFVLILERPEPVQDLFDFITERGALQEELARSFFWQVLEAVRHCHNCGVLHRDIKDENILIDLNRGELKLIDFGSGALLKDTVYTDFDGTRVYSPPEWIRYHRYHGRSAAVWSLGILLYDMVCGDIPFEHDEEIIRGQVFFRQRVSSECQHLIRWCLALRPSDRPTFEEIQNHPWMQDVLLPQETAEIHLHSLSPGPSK

Compound: C[C@@H]1C[C@H](c2ccncc2NC(=O)c2cccc(-c3c(F)cccc3F)n2)C[C@H](N)[C@H]1O (stereo in doubt) [Example 52, N-(4-((1S,3S,4S,5R)-3-amino-4-hydroxy-5-methylcyclohexyl)pyridin-3-yl)-6-(2,6-difluorophenyl)picolinamide]
- IC50 (Pim1 kinase): 1 nM
- IC50 (Pim3 kinase): 2 nM

Compound: C[C@H]1C[C@@H](c2ccncc2NC(=O)c2ccc(F)c(C3CCCCC3)n2)C[C@@H](N)[C@@H]1O (stereo in doubt) [Example 89, N-(4-(3-amino-4-hydroxy-5-methylcyclohexyl)pyridin-3-yl)-6-cyclohexyl-5-fluoropicolinamide]
- IC50 (Pim1 kinase): 8 nM
- IC50 (Pim3 kinase): 29 nM

Compound: C[C@H]1C[C@@H](c2ccncc2NC(=O)c2nc(C3CCCCC3)ccc2N)C[C@@H](N)[C@@H]1O (stereo in doubt) [Example 90, 3-amino-N-(4-(3-amino-4-hydroxy-5-methylcyclohexyl)pyridin-3-yl)-6-cyclohexylpicolinamide]
- IC50 (Pim1 kinase): 3 nM
- IC50 (Pim3 kinase): 12 nM

Compound: C[C@@H]1C[C@H](N)C[C@H](c2ccncc2NC(=O)c2ccc(F)c(C3CCCCC3)n2)C1 (stereo in doubt) [Example 91, N-(4-(3-amino-5-methylcyclohexyl)pyridin-3-yl)-6-cyclohexyl-5-fluoropicolinamide]
- IC50 (Pim1 kinase): 3 nM
- IC50 (Pim3 kinase): 21 nM

Compound: CC(=O)O[C@H]1CC[C@@H](c2ccncc2NC(=O)c2nc(-c3c(F)cccc3F)ccc2N)C[C@H]1N (stereo in doubt) [Example 101, 2-amino-4-(3-(3-amino-6-(2,6-difluorophenyl)picolinamido)pyridin-4-yl)cyclohexyl acetate]
- IC50 (Pim1 kinase): 2 nM
- IC50 (Pim3 kinase): 5 nM

Compound: C[C@H]1C[C@@H](c2ccncc2NC(=O)c2nc(-c3c(F)cccc3F)c(F)cc2N)C[C@@H](N)[C@@H]1O (stereo in doubt) [Example 130, 3-amino-N-(4-(3-amino-4-hydroxy-5-methylcyclohexyl)pyridin-3-yl)-6-(2,6-difluorophenyl)-5-fluoropicolinamide]
- IC50 (Pim1 kinase): 2 nM

Compound: Nc1cc(F)c(-c2c(F)cccc2F)nc1C(=O)Nc1cnccc1[C@@H]1CC[C@H](O)[C@H](N)C1 (stereo in doubt) [Example 131, 3-amino-N-(4-(3-amino-4-hydroxycyclohexyl)pyridin-3-yl)-6-(2,6-difluorophenyl)-5-fluoropicolinamide]
- IC50 (Pim1 kinase): 2 nM

Compound: C[C@H]1C[C@@H](c2ccncc2NC(=O)c2nc(-c3c(F)cccc3F)c(F)cc2N)C[C@@H](N)[C@H]1O (stereo in doubt) [Example 132, 3-amino-N-(4-(3-amino-4-hydroxy-5-methylcyclohexyl)pyridin-3-yl)-6-(2,6-difluorophenyl)-5-fluoropicolinamide]
- IC50 (Pim1 kinase): 1 nM

Compound: C[C@@H]1C[C@H](N)C[C@H](c2ccncc2NC(=O)c2nc(-c3c(F)cccc3F)c(F)cc2N)C1 (stereo in doubt) [Example 133, 3-amino-N-(4-(3-amino-5-methylcyclohexyl)pyridin-3-yl)-6-(2,6-difluorophenyl)-5-fluoropicolinamide]
- IC50 (Pim1 kinase): 1 nM
- IC50 (Pim3 kinase): 7 nM

Compound: C[C@H]1C[C@@H](c2ccncc2NC(=O)c2ccc(F)c(-c3c(F)cc(O)cc3F)n2)C[C@@H](N)[C@@H]1O [Example 4, N-(4-((1R,3R,4R,5S)-3-amino-4-hydroxy-5-methylcyclohexyl)pyridin-3-yl)-6-(2,6-difluoro-4-hydroxyphenyl)-5-fluoropicolinamide]
- IC50 (Pim1 kinase): 1 nM
- IC50 (Pim3 kinase): 2 nM

Compound: C[C@H]1C[C@@H](c2ccncc2NC(=O)c2ccc(F)c(-c3cc(O)ccc3F)n2)C[C@@H](N)[C@@H]1O [Example 5, N-(4-((1R,3R,4R,5S)-3-amino-4-hydroxy-5-methylcyclohexyl)pyridin-3-yl)-5-fluoro-6-(2-fluoro-5-hydroxyphenyl)picolinamide]
- IC50 (Pim1 kinase): 3 nM
- IC50 (Pim3 kinase): 9 nM

Compound: N[C@H]1CCC[C@@H](c2ccncc2NC(=O)c2cccc(-c3cc(O)ccc3F)n2)C1 [Example 7, N-(4-((1R,3S)-3-aminocyclohexyl)pyridin-3-yl)-6-(2-fluoro-5-hydroxyphenyl)picolinamide]
- IC50 (Pim1 kinase): 1 nM
- IC50 (Pim3 kinase): 2 nM

Compound: N[C@H]1CCC[C@@H](c2ccncc2NC(=O)c2cccc(-c3c(F)cc(O)cc3F)n2)C1 [Example 8, N-(4-((1R,3S)-3-aminocyclohexyl)pyridin-3-yl)-6-(2,6-difluoro-4-hydroxyphenyl)picolinamide]
- IC50 (Pim1 kinase): 1 nM
- IC50 (Pim3 kinase): 2 nM

Compound: N[C@H]1CCC[C@@H](c2ccncc2NC(=O)c2ccc(F)c(-c3ccc(O)cc3F)n2)C1 [Example 9, N-(4-((1R,3S)-3-aminocyclohexyl)pyridin-3-yl)-5-fluoro-6-(2-fluoro-4-hydroxyphenyl)picolinamide]
- IC50 (Pim1 kinase): 1 nM
- IC50 (Pim3 kinase): 2 nM

Compound: CC1(C)C[C@H](N)C[C@H](c2ccncc2NC(=O)c2ccc(F)c(-c3ccc(O)cc3F)n2)C1 [Example 10, N-(4-((1R,5R)-5-amino-3,3-dimethylcyclohexyl)pyridin-3-yl)-5-fluoro-6-(2-fluoro-4-hydroxyphenyl)picolinamide]
- IC50 (Pim1 kinase): 1 nM
- IC50 (Pim3 kinase): 6 nM

Compound: Cc1ccc(F)c(-c2nc(C(=O)Nc3cnccc3[C@H]3C[C@@H](N)CC(C)(C)C3)ccc2F)c1F [Example 11, N-(4-((1R,5R)-5-amino-3,3-dimethylcyclohexyl)pyridin-3-yl)-6-(2,6-difluoro-3-methylphenyl)-5-fluoropicolinamide]
- IC50 (Pim1 kinase): 1 nM
- IC50 (Pim3 kinase): 4 nM

Compound: Cc1ccc(F)c(-c2cccc(C(=O)Nc3cnccc3N3C[C@@H](N)[C@H](O)[C@@H](C)C3)n2)c1F [Example 13, N-(4-((3R,4R,5S)-3-amino-4-hydroxy-5-methylpiperidin-1-yl)pyridin-3-yl)-6-(2,6-difluoro-3-methylphenyl)picolinamide]
- IC50 (Pim1 kinase): 1 nM
- IC50 (Pim3 kinase): 3 nM

Compound: C[C@H]1CN(c2ccncc2NC(=O)c2ccc(F)c(C3CCCCC3)n2)C[C@@H](N)[C@@H]1O [Example 16, N-(4-((3R,4R,5S)-3-amino-4-hydroxy-5-methylpiperidin-1-yl)pyridin-3-yl)-6-cyclohexyl-5-fluoropicolinamide]
- IC50 (Pim1 kinase): 1 nM

Compound: C[C@H]1CN(c2ccncc2NC(=O)c2ccc(F)c(-c3ccccc3F)n2)C[C@@H](N)[C@@H]1O [Example 25, N-(4-((3R,4R,5S)-3-amino-4-hydroxy-5-methylpiperidin-1-yl)pyridin-3-yl)-5-fluoro-6-(2-fluorophenyl)picolinamide]
- IC50 (Pim1 kinase): 1 nM

Compound: C[C@H]1CN(c2ccncc2NC(=O)c2cccc(-c3c(F)cccc3F)n2)C[C@@H](N)[C@@H]1O [Example 26, N-(4-((3R,4R,5S)-3-amino-4-hydroxy-5-methylpiperidin-1-yl)pyridin-3-yl)-6-(2,6-difluorophenyl)picolinamide]
- IC50 (Pim1 kinase): 1 nM

Compound: C[C@@H]1C[C@H](N)C[C@H](c2ccncc2NC(=O)c2nc(-c3c(F)cc(O)cc3F)ccc2F)C1 [Example 42, N-(4-((1R,3S,5S)-3-amino-5-methylcyclohexyl)pyridin-3-yl)-6-(2,6-difluoro-4-hydroxyphenyl)-3-fluoropicolinamide]
- IC50 (Pim1 kinase): 1 nM

Compound: COc1ccc(F)c(-c2nc(C(=O)Nc3cnccc3[C@@H]3C[C@H](C)C[C@H](N)C3)ccc2F)c1 [Example 45, N-(4-((1R,3S,5S)-3-amino-5-methylcyclohexyl)pyridin-3-yl)-5-fluoro-6-(2-fluoro-5-methoxyphenyl)picolinamide]
- IC50 (Pim1 kinase): 1 nM

Compound: C[C@@H]1C[C@H](N)C[C@H](c2ccncc2NC(=O)c2ccc(F)c([C@H]3CC[C@@H](O)CC3)n2)C1 [Example 54, N-(4-((1R,3S,5S)-3-amino-5-methylcyclohexyl)pyridin-3-yl)-5-fluoro-6-((1s,4s)-4-hydroxycyclohexyl)picolinamide]
- IC50 (Pim1 kinase): 3 nM

Compound: C[C@@H]1C[C@H](N)C[C@H](c2ccncc2NC(=O)c2ccc(F)c([C@H]3CC[C@H](O)CC3)n2)C1 [Example 55, N-(4-((1R,3S,5S)-3-amino-5-methylcyclohexyl)pyridin-3-yl)-5-fluoro-6-((1r,4r)-4-hydroxycyclohexyl)picolinamide]
- IC50 (Pim1 kinase): 3 nM

Compound: Nc1cc(F)c(-c2c(F)cccc2F)nc1C(=O)Nc1cnccc1[C@@H]1CC[C@H](O)[C@H](N)C1 [Example 65, 3-amino-N-(4-((1R,3R,4S)-3-amino-4-hydroxycyclohexyl)pyridin-3-yl)-6-(2,6-difluorophenyl)-5-fluoropicolinamide]
- IC50 (Pim1 kinase): 1 nM

Compound: Nc1ccc(-c2c(F)cccc2F)nc1C(=O)Nc1cnccc1[C@@H]1CC[C@H](O)[C@@H](N)C1 [Example 104, 3-amino-N-(4-((1R,3S,4S)-3-amino-4-hydroxycyclohexyl)pyridin-3-yl)-6-(2,6-difluorophenyl)picolinamide]
- IC50 (Pim1 kinase): 3 nM

Compound: Nc1ccc(-c2c(F)cccc2F)nc1C(=O)Nc1cnccc1C1=CC(N)CCC1 (stereo not drawn) [Example 107, 3-amino-N-(4-(3-aminocyclohex-1-enyl)pyridin-3-yl)-6-(2,6-difluorophenyl)picolinamide]
- IC50 (Pim1 kinase): 2 nM

Compound: COc1cc(F)c(-c2cccc(C(=O)Nc3cnccc3[C@H]3C[C@@H](N)C[C@@H](C(F)(F)F)C3)n2)c(F)c1 [Example 109, N-(4-((1R,3R,5S)-3-amino-5-(trifluoromethyl)cyclohexyl)pyridin-3-yl)-6-(2,6-difluoro-4-methoxyphenyl)picolinamide]
- IC50 (Pim1 kinase): 1 nM

Compound: C[C@H]1C[C@@H](c2ccncc2NC(=O)c2nc(-c3c(F)cccc3F)c(F)cc2N)C[C@@H](O)[C@@H]1O [Example 121, 3-amino-6-(2,6-difluorophenyl)-N-(4-((1R,3R,4R,5S)-3,4-methylcyclohexyl)pyridin-3-yl)-5-fluoropicolinamide]
- IC50 (Pim3 kinase): 2 nM

Compound: CC1(C)C[C@H](N)C[C@H](c2ccncc2NC(=O)c2ccc(F)c(-c3c(F)cc(O)cc3F)n2)C1 [Example 122, N-(4-((1R,5R)-5-amino-3,3-dimethylcyclohexyl)pyridin-3-yl)-6-(2,6-difluoro-4-hydroxyphenyl)-5-fluoropicolinamide]
- IC50 (Pim1 kinase): 1 nM

Compound: C[C@H]1C[C@@H](c2ccncc2NC(=O)c2ccc(F)c(-c3c(F)cccc3F)n2)C[C@@H](N)[C@H]1F [Example 139, N-(4-((1R,3R,4S,5S)-3-amino-4-fluoro-5-methylcyclohexyl)-pyridin-3-yl)-6-(2,6-difluorophenyl)-5-fluoropicolinamide]
- IC50 (Pim3 kinase): 4 nM

Reference: patent US8592455B2 (priority 2008, dated 2013)
